Data set [1] concerns the target T1, reuptake of dopamine (DA) in synaptosomes (Rattus norvegicus, UniProt P23977).
T1 construct: in synaptosomes as described in WO 97/16451; from tissue; host or cells: synaptosomes (brain tissue)
Briefly: Inhibition of dopamine (DA) reuptake in synaptosomes. The class given is biochemical.

Data set [2] concerns the target T2, reuptake of noradrenaline (NA) in synaptosomes (Rattus norvegicus, UniProt Q63380).
T2 construct: in synaptosomes as described in WO 97/16451; from tissue; host or cells: synaptosomes (brain tissue)
Briefly: Inhibition of noradrenaline (NA) reuptake in synaptosomes. It is filed as biochemical.

Data set [3] has as its target T3, reuptake of serotonine (5-HT) in synaptosomes (Rattus norvegicus, UniProt P31652).
T3 construct: in synaptosomes as described in WO 97/16451; from tissue; host or cells: synaptosomes (brain tissue)
Briefly: Inhibition of serotonine (5-HT) reuptake in synaptosomes. The class given is biochemical. Here is the method:
A number of compounds were tested for their ability to inhibit the reuptake of the monoamine neurotransmitters dopamine (DA) noradrenaline (NA) and serotonine (5-HT) in synaptosomes as described in WO 97/16451.
The test values are given as IC50 (the concentration (μM) of the test substance which inhibits the specific binding of ^3H-DA, ^3H-NA, or ^3H-5-HT by 50%).

Where a name gives a salt, the structure may show the parent alone. Read-outs that look alike come from different tables or passages of the source.

T3 sequence (P31652 whole entry): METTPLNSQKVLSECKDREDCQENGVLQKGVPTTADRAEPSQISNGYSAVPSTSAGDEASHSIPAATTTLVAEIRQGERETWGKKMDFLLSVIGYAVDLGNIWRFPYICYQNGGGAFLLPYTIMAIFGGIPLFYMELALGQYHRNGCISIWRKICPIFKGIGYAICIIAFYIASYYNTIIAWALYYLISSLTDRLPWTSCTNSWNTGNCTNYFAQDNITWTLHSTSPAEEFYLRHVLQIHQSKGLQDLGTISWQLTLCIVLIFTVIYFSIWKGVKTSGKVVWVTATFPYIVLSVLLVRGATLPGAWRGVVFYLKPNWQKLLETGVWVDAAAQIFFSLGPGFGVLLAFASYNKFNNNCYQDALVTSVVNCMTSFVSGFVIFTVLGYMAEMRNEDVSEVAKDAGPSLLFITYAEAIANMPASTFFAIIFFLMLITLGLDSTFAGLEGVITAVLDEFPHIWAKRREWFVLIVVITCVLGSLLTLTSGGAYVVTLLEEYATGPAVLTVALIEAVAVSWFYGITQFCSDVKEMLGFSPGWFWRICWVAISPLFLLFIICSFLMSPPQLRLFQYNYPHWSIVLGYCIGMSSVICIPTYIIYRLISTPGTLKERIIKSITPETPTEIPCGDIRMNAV
T2 sequence (Q63380 1-617): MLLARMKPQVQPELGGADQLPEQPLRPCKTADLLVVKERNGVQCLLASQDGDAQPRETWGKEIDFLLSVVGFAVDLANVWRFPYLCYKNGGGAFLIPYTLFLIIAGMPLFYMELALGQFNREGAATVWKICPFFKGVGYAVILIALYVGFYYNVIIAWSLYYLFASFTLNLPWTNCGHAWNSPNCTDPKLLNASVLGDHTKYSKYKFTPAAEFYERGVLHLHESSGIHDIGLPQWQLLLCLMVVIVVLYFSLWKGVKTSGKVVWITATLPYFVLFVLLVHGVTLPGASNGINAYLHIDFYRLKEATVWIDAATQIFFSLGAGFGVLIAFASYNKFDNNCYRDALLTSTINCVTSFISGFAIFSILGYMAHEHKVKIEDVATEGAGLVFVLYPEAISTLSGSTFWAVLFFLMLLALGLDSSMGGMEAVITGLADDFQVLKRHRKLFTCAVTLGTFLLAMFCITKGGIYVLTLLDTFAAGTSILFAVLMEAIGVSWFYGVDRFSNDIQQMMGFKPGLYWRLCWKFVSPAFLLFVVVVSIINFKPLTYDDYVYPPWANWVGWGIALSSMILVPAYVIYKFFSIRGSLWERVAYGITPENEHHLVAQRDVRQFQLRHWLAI
T1 sequence (P23977 whole entry): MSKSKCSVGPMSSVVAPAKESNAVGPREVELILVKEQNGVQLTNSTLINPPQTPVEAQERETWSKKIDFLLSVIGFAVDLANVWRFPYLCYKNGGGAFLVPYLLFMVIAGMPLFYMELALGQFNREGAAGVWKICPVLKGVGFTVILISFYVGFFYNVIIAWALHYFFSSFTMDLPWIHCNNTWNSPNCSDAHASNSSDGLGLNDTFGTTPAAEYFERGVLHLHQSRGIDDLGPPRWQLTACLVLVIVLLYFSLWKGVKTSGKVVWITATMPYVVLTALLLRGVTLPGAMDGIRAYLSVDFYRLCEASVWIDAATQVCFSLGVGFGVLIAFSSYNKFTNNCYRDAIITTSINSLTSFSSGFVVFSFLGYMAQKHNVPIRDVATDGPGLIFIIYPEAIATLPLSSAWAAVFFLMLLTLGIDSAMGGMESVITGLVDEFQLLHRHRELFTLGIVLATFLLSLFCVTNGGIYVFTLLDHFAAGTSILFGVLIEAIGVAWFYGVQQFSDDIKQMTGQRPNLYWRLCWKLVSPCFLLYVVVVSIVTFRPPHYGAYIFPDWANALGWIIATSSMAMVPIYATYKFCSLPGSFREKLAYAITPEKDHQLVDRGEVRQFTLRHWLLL

As to `CN1C2CCCC1CN(c1ccc3cc(O)ccc3c1)C2` [3rd compound of Method C, 6-(9-Methyl-3,9-diaza-bicyclo[3.3.1]non-3-yl)-naphthalen-2-ol], the IC50 amounted to 54 nM in data set [1]; 110 nM in data set [2] (synaptosomes, 3H-NA, read-out: NA-uptake IC50); 7.9 nM in data set [3].

As to `COc1ccc2cc(N3CC4CCCC(C3)N4C)ccc2c1` [1st compound of Method C, 3-(6-Methoxy-naphthalen-2-yl)-9-methyl-3,9-diaza-bicyclo[3.3.1]nonane], the IC50 was determined as 230 nM in data set [1] (synaptosomes, 3H-DA, read-out: DA-uptake IC50); 19 nM in data set [2]; 8.1 nM in data set [3].

In turn, `COc1ccc2cc(N3CC4CCCC(C3)N4C)ccc2c1` (as salt: fumaric acid salt) [1st compound of Method C, 3-(6-Methoxy-naphthalen-2-yl)-9-methyl-3,9-diaza-bicyclo[3.3.1]nonane] registered a melting point of 190 to 198.3 °C.

Turning to `Clc1ccc(N2CC3CCCC(C2)N3)cc1Cl` (as salt: hydrochloric acid salt) [1st compound of Method B, 3-(3,4-Dichloro-phenyl)-3,9-diaza-bicyclo[3.3.1]nonane], the melting point came out at 295.4 °C.

Regarding `Clc1ccc(N2CC3CCCC(C2)N3)cc1Cl` [1st compound of Method B, 3-(3,4-Dichloro-phenyl)-3,9-diaza-bicyclo[3.3.1]nonane], the values for the IC50 in data set [1], in data set [2] and in data set [3] were 160 nM, 7.4 nM and 0.69 nM, respectively.

Broadly, the IC50 is the concentration at which inhibition is half-maximal. In general, melting point refers to the temperature, or range, at which the solid turns liquid.

The values above are taken from patent publication US8071598B2, “3,9-diazabicyclo[3.3.1]nonane derivatives and their use as monoamine neurotransmitter re-uptake inhibitors” (Neurosearch A/S, priority 2006, dated 2011).
